Assays:
[1] = target: recombinant human integrin αvβ1 (Homo sapiens (Human), UniProt P05556+P06756); assay: Solid phase integrin αvβ1 binding assay (fibronectin); conditions: recombinant human integrin αvβ1 coated plate, recombinant fibronectin 2 ug/ml, 2 hours at 25° C., read-out: αvβ1 Inhibition IC50 (nM)-range
Experimental: Example B2—Solid Phase Integrin αvβ1 Binding Assay
Microplates were coated with recombinant human integrin αvβ1 (2 ug/ml) in PBS (100 ul/well 4° C., overnight). The coating solution was removed, washed with PBS. Plate was blocked with 200 ul/well of Block Buffer (2% BSA in PBS) at 37° C. for 1 h. Dilutions of testing compounds and recombinant fibronectin (2 ug/ml) in binding and washing buffer (50 mM Tris-HCl, ph7.5; 0.1% BSA, 1 mM MnCl2; NaCl 150 mM; 0.02% Tween-20; 1 mM CaCl2); 1 mM MgCl2) were added. The plate was incubated for 2 hours at 25° C., washed, and incubated for 1 hour with Biotin-Anti-fibronectin. Bound antibody was detected by peroxidase-conjugated streptavidin. The IC50 values for testing compounds were calculated by a four-parameter logistic regression.
The compounds tested were compound samples prepared according to procedures described in the Synthetic Examples section, with the stereochemical purity as indicated in the Examples. The compounds tested were predominantly S-configuration at the alpha carbon of the amino acid scaffold, except for compounds 123, 124, and 125 which were predominantly R-configuration at the alpha carbon of the amino acid scaffold.

[2] = target: αvβ1 integrin (αvβ1 expressing CHO cells) (Homo sapiens (Human), UniProt P05556+P06756); assay: Cell adhesion assay: inhibition of αvβ1 expressing CHO cells attaching to TGFβ1LAP; assay type: cell-based; conditions: 1 h at 37° C., crystal violet absorbance 595 nm, read-out: αvβ1 Inhibition IC50 (nM)-range
Chain of αvβ1 integrin (αvβ1 expressing CHO cells) (P06756 31-889): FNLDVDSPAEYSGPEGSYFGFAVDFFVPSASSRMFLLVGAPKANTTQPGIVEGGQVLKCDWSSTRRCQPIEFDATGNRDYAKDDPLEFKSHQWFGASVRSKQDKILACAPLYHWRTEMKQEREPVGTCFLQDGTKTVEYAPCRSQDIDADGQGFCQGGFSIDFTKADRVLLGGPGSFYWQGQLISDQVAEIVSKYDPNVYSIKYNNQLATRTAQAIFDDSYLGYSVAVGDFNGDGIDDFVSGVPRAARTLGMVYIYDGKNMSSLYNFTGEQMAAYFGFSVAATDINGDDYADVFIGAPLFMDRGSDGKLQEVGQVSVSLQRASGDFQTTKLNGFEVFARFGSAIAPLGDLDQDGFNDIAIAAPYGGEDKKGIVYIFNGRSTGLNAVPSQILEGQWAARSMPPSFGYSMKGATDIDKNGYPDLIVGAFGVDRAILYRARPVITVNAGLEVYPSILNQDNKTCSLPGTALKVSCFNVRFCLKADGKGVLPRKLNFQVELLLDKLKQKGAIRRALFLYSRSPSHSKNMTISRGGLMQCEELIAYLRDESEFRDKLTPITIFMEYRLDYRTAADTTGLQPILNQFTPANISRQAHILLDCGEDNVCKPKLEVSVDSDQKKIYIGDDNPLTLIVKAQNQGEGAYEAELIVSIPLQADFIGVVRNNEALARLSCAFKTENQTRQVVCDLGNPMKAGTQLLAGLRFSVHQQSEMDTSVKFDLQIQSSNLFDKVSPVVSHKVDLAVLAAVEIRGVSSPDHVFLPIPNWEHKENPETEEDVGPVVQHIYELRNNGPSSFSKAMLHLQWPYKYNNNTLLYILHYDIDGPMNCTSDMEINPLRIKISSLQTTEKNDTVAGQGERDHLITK
Chain of αvβ1 integrin (αvβ1 expressing CHO cells) (P06756 891-1048 partner): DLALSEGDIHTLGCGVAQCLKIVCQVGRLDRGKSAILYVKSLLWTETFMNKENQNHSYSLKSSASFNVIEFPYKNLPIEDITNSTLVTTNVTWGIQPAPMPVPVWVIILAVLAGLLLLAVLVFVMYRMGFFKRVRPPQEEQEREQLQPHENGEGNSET
Chain of αvβ1 integrin (αvβ1 expressing CHO cells) (P05556 21-798): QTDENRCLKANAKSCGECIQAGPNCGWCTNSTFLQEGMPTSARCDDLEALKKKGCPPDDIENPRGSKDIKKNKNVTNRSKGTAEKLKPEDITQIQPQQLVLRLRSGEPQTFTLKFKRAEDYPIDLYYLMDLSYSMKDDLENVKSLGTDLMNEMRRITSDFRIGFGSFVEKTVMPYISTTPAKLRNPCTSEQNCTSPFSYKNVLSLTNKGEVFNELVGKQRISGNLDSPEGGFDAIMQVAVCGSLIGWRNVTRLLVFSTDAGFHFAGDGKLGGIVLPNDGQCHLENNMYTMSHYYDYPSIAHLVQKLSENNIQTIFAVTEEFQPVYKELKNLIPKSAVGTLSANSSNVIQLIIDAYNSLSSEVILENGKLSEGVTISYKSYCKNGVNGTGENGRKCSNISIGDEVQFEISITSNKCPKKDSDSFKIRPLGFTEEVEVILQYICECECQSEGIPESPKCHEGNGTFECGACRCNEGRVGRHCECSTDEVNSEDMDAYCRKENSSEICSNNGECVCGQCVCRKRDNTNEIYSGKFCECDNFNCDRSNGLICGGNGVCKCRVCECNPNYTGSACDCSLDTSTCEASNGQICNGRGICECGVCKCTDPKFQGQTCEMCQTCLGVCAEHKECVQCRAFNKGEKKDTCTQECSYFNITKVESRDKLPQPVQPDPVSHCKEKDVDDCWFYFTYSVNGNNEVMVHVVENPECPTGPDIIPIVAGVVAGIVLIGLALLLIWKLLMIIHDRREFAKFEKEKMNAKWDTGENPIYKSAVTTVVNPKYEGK
In short: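 Plates coated with 2 ug/ml TGFβ1LAP and blocked with 2% BSA; cells (1.0×10^6 cells/ml in DMEM) incubated with compound 1 hour at 37° C. Non-adherent cells removed by centrifugation; adherent cells stained with crystal violet, absorbance 595 nm, IC50 by four-parameter non-linear regression.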

Chain of recombinant human integrin αvβ1 (P06756 31-889): as the sequence (P06756 31-889) above
Chain of recombinant human integrin αvβ1 (P06756 891-992 partner): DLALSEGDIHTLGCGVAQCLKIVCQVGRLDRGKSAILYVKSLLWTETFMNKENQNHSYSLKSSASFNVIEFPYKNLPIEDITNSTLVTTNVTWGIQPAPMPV
Chain of recombinant human integrin αvβ1 (P05556 21-728): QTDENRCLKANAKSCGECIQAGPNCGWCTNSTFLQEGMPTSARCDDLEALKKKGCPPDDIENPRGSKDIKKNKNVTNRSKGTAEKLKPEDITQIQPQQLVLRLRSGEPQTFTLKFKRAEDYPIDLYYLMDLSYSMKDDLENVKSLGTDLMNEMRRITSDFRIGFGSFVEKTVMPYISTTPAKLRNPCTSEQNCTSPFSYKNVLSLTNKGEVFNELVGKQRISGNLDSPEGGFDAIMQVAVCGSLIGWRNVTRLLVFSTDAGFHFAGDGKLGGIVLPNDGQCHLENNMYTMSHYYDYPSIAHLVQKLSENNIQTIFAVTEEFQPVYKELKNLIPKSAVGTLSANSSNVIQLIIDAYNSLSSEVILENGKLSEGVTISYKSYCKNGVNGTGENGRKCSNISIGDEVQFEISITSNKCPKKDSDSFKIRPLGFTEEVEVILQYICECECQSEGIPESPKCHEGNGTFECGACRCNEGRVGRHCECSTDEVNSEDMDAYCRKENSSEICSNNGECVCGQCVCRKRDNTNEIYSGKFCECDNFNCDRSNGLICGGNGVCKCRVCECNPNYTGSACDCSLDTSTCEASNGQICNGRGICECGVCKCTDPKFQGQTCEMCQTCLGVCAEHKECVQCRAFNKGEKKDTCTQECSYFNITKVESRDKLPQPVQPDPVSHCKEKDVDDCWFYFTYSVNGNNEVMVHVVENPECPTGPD

IC50 [1] [nM] | IC50 [2] [nM] | SMILES
< 50 | 50 to 250 | Cn1ncc2ccc(C(=O)NC(CCCCCCCc3ccc4c(n3)NCCC4)C(=O)O)cc21 (centres unmarked) [Compound 81, 2-(1-methyl-1H-indazole-6-carboxamido)-9-(5,6,7,8-tetrahydro-1,8-naphthyridin-2-yl)nonanoic acid]
50 to 250 |  | O=C(N[C@@H](CCCCCCCc1ccc2c(n1)NCCC2)C(=O)O)c1cccc(-c2cncs2)c1 [Compound 126]
250 to 1000 |  | O=C(NC(CN1CCC(OCCCc2ccc3c(n2)NCCC3)C1)C(=O)O)c1c(Cl)cccc1Cl (centres unmarked) [Compound 75, 2-(2,6-dichlorobenzamido)-3-(3-(3-(5,6,7,8-tetrahydro-1,8-naphthyridin-2-yl)propoxy)pyrrolidin-1-yl)propanoic acid]
< 50 |  | O=C(NC(CCCCCCCc1ccc2c(n1)NCCC2)C(=O)O)c1ccc(F)cc1 (centres unmarked) [Compound 88]

Source: patent publication US20230365556A1, “N-ACYL AMINO ACID COMPOUNDS AND METHODS OF USE” (Pliant Therapeutics, Inc., priority 2016, published 2023)
